From patent publication US11000586B2, “Adjuvant composition, vaccine composition containing the same, and method for producing both of them” (TERUMO KABUSHIKI KAISHA, priority 2013, dated 2021)

Key:
[1] = system: CD80; experiment: Evaluation of stimulus to activate innate immune system: expression of CD80 in cultured mice spleen cells (flow cytometry); conditions: for CD80 MFI, Amphipathic substance: amphipathic substance alone; for fluorescence intensity of CD80PE compared with PBS: solution (5 μL) of sample added alone: peptide, OVA 800 μg/mL, DLPC 1000 nmol/mL, deoxycholic acid 1600 nmol/mL, FIG. 8(B)
Experimental: The evaluation of stimulus to activate innate immune system was performed as follows.
A spleen was harvested from C57BL/6N mice. The harvested spleen was injected with 500 μL of collagenase solution, 2 mg/mL (prepared with RPMI medium) followed by incubation at 37° C. for 30 minutes. The spleen was made into cell suspension by treatment with BD Falcon cell strainer. The cells underwent hemolysis with RBC lysis buffer, followed by washing with RPMI medium. The cells were dispersed into RPMI medium, and the number of cells was counted. The cells were used for the subsequent procedure.
The cells were inoculated into a 96-well dish such that 1.0×10^6 cells/100 μL. The cell dispersion was given 100 μL of RPMI medium containing a dispersion of different kind, followed by incubation overnight. These procedures were performed by using serum-free RPMI medium.
The cells were recovered and washed with BD stain buffer. Then, the cells underwent incubation together with Anti-CD11cFITC, 0.25 μg/100 μL (4° C. for 30 minutes), so that the cells were stained. After washing, the cells underwent again incubation with Anti-CD80PE, Anti-CD86PE, or Anti-CD40PE, 0.25 μg/100 μL (4° C. for 30 minutes), so that the cells were stained. After washing at least more than three times, the cells were evaluated by using the flow cytometer (Cytomics FC500, Software: CXP software ver. 2).

[2] = Release test: measurement of leakage
Experimental: The term “Membrane disruptive function” denotes the function to bring about release in the release test. The release test described in this specification is a test comprising or consisting of adding liposomes (dispersion) encapsulating an aqueous solution containing a quenching substance and a fluorescent substance and a dispersion of a sample for evaluation to a properly pH-adjusted aqueous solution, incubating the resulting aqueous solution at 37° C. for 90 minutes or 30 minutes, and measuring the fluorescence intensity of the incubated aqueous solution. This method permits the measurement of the amount of the fluorescent substance which has been released from the liposomes. […] The release test will be described in more detail in the Examples.
The evaluation was performed with the help of EYPC liposomes which contain Pyranine (as a fluorescent substance) and DPX (as a quencher).
EYPC (3000 nmol) dissolved in chloroform was measured and placed in a 10-mL eggplant-shaped flask, and the EYPC was made into thin film with a rotary evaporator. To the flask was added a Pyranine solution (500 μL), which is composed of Pyranine (35 mM), DPX (50 mM), and MES (25 mM), and has pH 7.4. The thin film in the flask was dispersed with the help of an ultrasonic irradiator (USC-J). The resulting dispersion was passed through a porous polycarbonate film having a pore diameter of 100 nm with the help of an extruder, so as to make the particle size uniform. The resulting dispersion underwent substitution of the outer aqueous layer with the help of MES Buffer and G100 column. Thus, there was obtained a dispersion of EYPC liposomes encapsulating the fluorescent substance. The concentration of the lipid was determined with the help of phospholipid C-test Wako, and then it was adjusted with MES Buffer so that phospholipid became 1.0 mmol/L.
The dispersion of EYPC liposomes (with its concentration adjusted) in an amount of 20 μL and the dispersion of a sample for evaluation in an amount of 20 μL were added to MES Buffer (with its pH adjusted) in an amount of 2960 μL. The resulting mixture underwent incubation at 37° C. for 90 or 30 minutes. Values resulting from incubation for 90 minutes are adopted in the Examples, unless otherwise indicated.
The leakage was calculated assuming that the sheer dispersion of EYPC liposomes has 0% and the dispersion of EYPC liposomes incorporated with 30 μL of 10-fold diluted Triton-X100 has 100%. Specifically, the leakage was calculated from the following formula, L denotes the intensity of fluorescence measured, L0 denotes the intensity of fluorescence of the sheer dispersion of EYPC liposomes containing the fluorescent substance, and L100 denotes the intensity of fluorescence of the dispersion of EYPC liposomes incorporated with Triton-X100.

[3] = system: CTL (IFNγ-secreting cells/total CD8 positive cells); experiment: Evaluation of CTL induction rate, ICS method, after immunization of mice; assay type: in vivo, C57BL/6N mice; design: key to CTL induction rate, Low MPL / CTL induction rate, High MPL: ratio of IFNγ-secreting cells to total CD8 positive cells; conditions: for CTL induction rate, High MPL: high MPL (22.7); for CTL induction rate, High MPL / CTL induction rate, Low MPL: n=3; for CTL induction rate, Low MPL: low MPL (0.0227)
Experimental: Administration (100 μL/head) was performed by subcutaneous injection at one position on the back under anesthesia. […] For evaluation of cell-mediated immunity, administration was performed once and the assay was performed seven days after administration. For evaluation of humoral immunity, administration was performed twice. The second administration was performed 14 days after the first administration, and assay was performed seven days after the second administration.
The mice were sacrificed on the seventh day after the last administration and had its spleen harvested. The spleen was given RPMI medium (3.0 mL) containing 10% serum and then treated by the BD Falcon cell strainer. Thus there was obtained a suspension of cells. […] The cells were dispersed into RPMI medium containing 10% serum. The number of cells was counted. Thus there was obtained a dispersion of spleen cells.
For restimulation of the antigen, 10% serum-containing RPMI medium (100 μL) containing OVA peptide (40 μg/mL) was added, followed by incubation for three hours. Then, BD GolgiPlug was added such that its concentration was 0.2 μL/100 μL. Cell culture was performed overnight. In the case where the restimulation was not given, a 10% serum-containing RPMI medium not containing OVA peptide was used.
After washing, the cells were stained with Anti-CD8aPE (at 4° C. for 30 minutes), followed by washing again. Then the cells were permeabilized with Cytofix/Cytoperm. After washing, the cells were stained with Anti-IFNγFITC (at 4° C. for 30 minutes). […] CTL induction rate was calculated in terms of the ratio between the IFNγ secreting cells and the total CD8 positive cells.
It is known that MPL activates innate immune system and functions as an adjuvant even when used alone. It is also known that MPL induces cell-mediated immunity. Thus, a comparison was made as to the induction of cell-mediated immunity between MPL used alone and MPL used in combination with a pH-sensitive carrier in the form of the adjuvant composition. Each of the MPL and the adjuvant composition is administered together with an antigen. […] The above-mentioned solution or dispersion was subcutaneously administered once to the back of C57BL/6N mice, and the CTL induction rate was obtained according to the ICS method. The CTL induction rate is expressed in terms of the ratio of the IFNγ-secreting cells to the total CD8 positive cells in a specific area which is hardly affected by dead cells (IFNγ-secreting cells/total CD8 positive cells).

[4] = Table 2, pH-sensitive substance alone
[5] = antigen peptide 3.2 μg, DLPC, deoxycholic acid (160 nmol), subcutaneous once
[6] = antigen peptide 16 μg, DLPC, deoxycholic acid (160 nmol), subcutaneous once
[7] = antigen peptide 80 μg, DLPC, deoxycholic acid (160 nmol), subcutaneous once
[8] = antigen peptide 400 μg, DLPC, deoxycholic acid (160 nmol), subcutaneous once

Cc1c(C)c2c(c(C)c1O)CCC(C)(CCCC(C)CCCC(C)CCCC(C)C)O2 (racemic) [α-tocopherol, DL-α-tocopherol]
CD80 MFI, Amphipathic substance [1]: 43.8 ± 4.9%
leakage, Alone, pH 5.0 ([2]; Table 1, substance alone): 10.6 ± 1.3%
leakage, Alone, pH 7.4 ([2]; Table 1, substance alone): 5.5 ± 0.3%

C[C@H](CCC(=O)O)[C@H]1CC[C@H]2[C@@H]3[C@H](O)C[C@@H]4C[C@H](O)CC[C@]4(C)[C@H]3CC[C@]12C [Chenodeoxycholic acid]
leakage, Alone, pH 5.0 [2, 4]: 14.1 ± 0.9%
leakage, Alone, pH 7.4 [2, 4]: 0.7 ± 0.5%

CCCCCCCCCC(=O)OC[C@H](COP(=O)([O-])OCC[N+](C)(C)C)OC(=O)CCCCCCCCC [DDPC, 1,2-didecanoyl-sn-glycero-3-phosphatidylcholine]
CD80 MFI, Amphipathic substance [1]: 36.5 ± 1.1%
leakage, Alone, pH 5.0 ([2]; Table 1, substance alone): 37.1 ± 1.3%
leakage, Alone, pH 7.4 ([2]; Table 1, substance alone): 17.4 ± 0.1%

CCCCCCCCCCCC(=O)OC[C@H](COP(=O)([O-])OCC[N+](C)(C)C)OC(=O)CCCCCCCCCCC [DLPC, 1,2-dilauroyl-sn-glycero-3-phosphatidylcholine]
CD80 MFI, Amphipathic substance [1]: 38.5 ± 2.9%
fluorescence intensity of CD80PE compared with PBS [1]: remained unchanged from that in the case where PBS was added
leakage, Alone, pH 5.0 ([2]; Table 1, substance alone): 5.5 ± 0.9%
leakage, Alone, pH 7.4 ([2]; Table 1, substance alone): 1.8 ± 1.2%

CC(CCC(=O)NCC(=O)O)C1CCC2C3CCC4CC(O)CCC4(C)C3CC(O)C12C (stereo not shown) [Glycodeoxycholic acid]
leakage, Alone, pH 5.0 [2, 4]: 9.8 ± 0.8%
leakage, Alone, pH 7.4 [2, 4]: 1.9 ± 1.2%

CC1(C)[C@@H](O[C@H]2O[C@H](C(=O)O)[C@@H](O)[C@H](O)[C@H]2O[C@@H]2O[C@H](C(=O)O)[C@@H](O)[C@H](O)[C@H]2O)CC[C@]2(C)[C@H]3C(=O)C=C4[C@@H]5C[C@@](C)(C(=O)O)CC[C@]5(C)CC[C@@]4(C)[C@]3(C)CC[C@@H]12 [Glycyrrhizinic acid]
leakage, Alone, pH 5.0 [2, 4]: 16.7 ± 2.9%
leakage, Alone, pH 7.4 [2, 4]: 4.2 ± 1.2%

C[C@H](CCC(=O)O)[C@H]1CC[C@H]2[C@@H]3C[C@H](O)[C@@H]4C[C@H](O)CC[C@]4(C)[C@H]3CC[C@]12C [Hyodeoxycholic acid]
leakage, Alone, pH 5.0 [2, 4]: 12.6 ± 0.4%
leakage, Alone, pH 7.4 [2, 4]: 4.2 ± 0.9%

CCCCCCCCCCCC(=O)OCCOCCOCCOCCOCCOCCOCCOCCOCCOCCOCCOCCOCCOCCOCCOCCOCCOCCOCCOCCOCC(OCCOCCOCCOCCOCCOCCOCCOCCOCCOCCOCCOCCOCCOCCOCCOCCOCCOCCOCCOCCO)C1OCC(OCCOCCOCCOCCOCCOCCOCCOCCOCCOCCOCCOCCOCCOCCOCCOCCOCCOCCOCCOCCO)C1OCCOCCOCCOCCOCCOCCOCCOCCOCCOCCOCCOCCOCCOCCOCCOCCOCCOCCOCCOCCO (stereo not shown) [Tween 20, polyoxyethylene sorbitan monolaurate ester]
CD80 MFI, Amphipathic substance [1]: 38.0 ± 3.2%
leakage, Alone, pH 5.0 ([2]; Table 1, substance alone): 74.0 ± 2.0%
leakage, Alone, pH 7.4 ([2]; Table 1, substance alone): 70.4 ± 3.9%

Monophosphoryl lipid A [MPL alone]
CTL induction rate (%), Adjuvant composition (with antigen not restimulated) ([3]; DLPC with pH-sensitive compound 160 nmol, MPL content 0.227, OVA (80 μg), dispersion, n=1, antigen not restimulated): 0.14%
CTL induction rate (%), Adjuvant composition ([3]; DLPC with pH-sensitive compound 160 nmol, MPL content 0.227, OVA (80 μg), dispersion, n=1, antigen restimulated): 0.25%
CTL induction rate by adjuvant composition (%), Antigen: OVA ([3]; antigen OVA (80 μg), DLPC, MPL content 0.227, deoxycholic acid amount (nmol) varied, dispersion, n=1): 0.18%
CTL induction rate by adjuvant composition (%), Antigen: peptide ([3]; antigen peptide (80 μg), DLPC, MPL content 0.227, deoxycholic acid amount (nmol) varied, dispersion, n=1): 0.22%
CTL induction rate ([3]; antigen peptide (80 μg), MPL content 0.227 or equivalent, DLPC, deoxycholic acid (160 nmol), subcutaneous once, FIGS. 3 and 4): 0.27%
CTL induction rate, High MPL [3, 5]: 0.45
CTL induction rate, High MPL [3, 6]: 0.36
CTL induction rate, High MPL [3, 7]: 0.37
CTL induction rate, High MPL [3, 8]: 0.58
CTL induction rate, Low MPL [3, 5]: 0.14
CTL induction rate, Low MPL [3, 6]: 0.31
CTL induction rate, Low MPL [3, 7]: 0.26
CTL induction rate, Low MPL [3, 8]: 0.46
CTL induction rate (%), Amphipathic substance-MPL ([3]; mixed thin film of amphipathic substance (100 nmol) and MPL (0.227) dispersed in antigen solution, OVA (80 μg), n=1): 0.20%
leakage at a low pH value compared with PBS alone ([2]; MPL (dispersed in PBS or DMSO) in an amount equivalent to MPL content 0.227, FIG. 9(A)): equivalent to that in the case where PBS was used alone

sorbitan oleic acid ester [Span 80]
CD80 MFI, Amphipathic substance [1]: 39.6 ± 1.8%
leakage, Alone, pH 5.0 ([2]; Table 1, substance alone): 18.1 ± 1.0%
leakage, Alone, pH 7.4 ([2]; Table 1, substance alone): 6.1 ± 0.6%

B1: OVA: OVA protein (EndoFit Ovalbumin: from InvivoGen), model antigen (protein, UniProt P01012 2-386, looked up)
Ovalbumin: GSIGAASMEFCFDVFKELKVHHANENIFYCPIAIMSALAMVYLGAKDSTRTQINKVVRFDKLPGFGDSIEAQCGTSVNVHSSLRDILNQITKPNDVYSFSLASRLYAEERYPILPEYLQCVKELYRGGLEPINFQTAADQARELINSWVESQTNGIIRNVLQPSSVDSQTAMVLVNAIVFKGLWEKAFKDEDTQAMPFRVTEQESKPVQMMYQIGLFRVASMASEKMKILELPFASGTMSMLVLLPDEVSGLEQLESIINFEKLTEWTSSNVMEERKIKVYLPRMKMEEKYNLTSVLMAMGITDVFSSSANLSGISSAESLKISQAVHAAHAEINEAGREVVGSAEAGVDAASVSEEFRADHPFLFCIKHIATNAVLFFGRCVSP
fluorescence intensity of CD80PE compared with PBS [1]: remained unchanged from that in the case where PBS was added
